Test results: patent publication US20100017370A1, “T CELL EPITOPE DATABASES” (ANTITOPE LIMITED, priority 2006, published 2010)

System: helper T cells in human PBMCs
Test: ex vivo T cell proliferation assay of peptides with CD8+ / CD25hi depleted PBMC
Assay type: cell-based
Details: for Number of responding donors: from 50 donors with a range of MHC class haplotypes; for Mean SI: mean stimulation index for responding donors, 50 donors tested; for helper T cell epitope status by T cell assays (database entry): proliferation assay, threshold SI≧2, CD25hi depletion 10 and 20 minutes; for T cell epitope strength (T cell proliferative responses): PBMCs of donor 475, peptide 5 μM

Sequence	Number of responding donors	Mean SI	helper T cell epitope status by T cell assays (database entry)	T cell epitope strength (T cell proliferative responses)
FKGEQGPKG	4	3.5 ± 0.7		
FLLTRILTI	6	3.9 ± 1.6		
FQHESGPLG [test peptide]	3	2.8 ± 0.7		
FQHTSILLI [test peptide]	5	3.8 ± 0.7		
GDKGVSWYQQGSGQS [2-F→G]			negative	
GFGBHIGPLGEP			non-T cell epitope	
GQHASGGLA [control peptide with altered P1 residue]	0			
GQHESASLR [control peptide with altered P1 residue]	0			
GQHESGPLG [control peptide with altered P1 residue]	0			
GQHTSILLI [control peptide with altered P1 residue]	0			
GQHWSYPLT [control peptide with altered P1 residue]	0			
ILWEWASYR	3	2.6 ± 0.6		
IQHESASLR [test peptide]	3	2.6 ± 0.1		
LQHASGGLA [test peptide]	2	2.2 ± 0.2		
LQHWSYPLT	5	6.3 ± 1.3		
LSCAAGGRA	3	2.3 ± 0.5		
PKYRNGQPLNSLKIAT [25 M→G]			negative	
PKYRNMQPLNSLKIAT [compound 25]			helper T cell epitopes	strong
QSISNWGNWYQQKPG [9-L→G]			negative	
TVFYNIPPMPL [compound 26]			helper T cell epitopes	strong
TVGYNIPPMPL [26 F→G]			negative	
